The results in this text go back to patent US20090203685A1, “ANTI-PROLIFERATIVE COMPOUNDS FROM A 3-ARYL-COUMARINE OR 3-ARYL-QUINOLIN-2-ONE AND USES THEREOF” (EOS (ETHICAL ONCOLOGY SCIENCE) S.P.A., priority 2006, published 2009).

The test system of data set [1] is prostate and lung tumor cells. The data set can be described thus: Viability and cell cycle profile, conclusion for prostate and lung tumor cells. Type of data set: cell-based. The following applies: 500 nM; cell cycle arrest at entry into mitosis. As to the method:
(§1) Propidium iodide (PI) cannot normally cross the cell membrane; it is thus excluded by viable cells but not from dying or dead cells, having a damaged membrane, where it intercalates into double-stranded nucleic acids and fluoresces when excited at 488 nm.
(§2) The cells are pelleted by gentle centrifugation 1200 rpm/5 min/4° C., then the supernatant is discarded and replaced by 1 mL of fresh medium. One hundred microliters of propidium iodide (40 μg/mL) are added to 400 μL of the cell suspension in a FACS tube and viability is measured by flow cytometry as the percentage of cells whose fluorescence recorded on FL-3 channel is comprised between 0 and 2.
(§3) The cells are pelleted by gentle centrifugation 1200 rpm/5 min/4° C., then the supernatant is discarded and the cells are fixed with 1 mL of PBS/Ethanol 70% overnight at −20° C. The tubes are then centrifuged during 5 minutes at 1200 rpm and the supernatant is removed. The pellet is then re-suspended in 450 μL of PBS before 50 μL of RNAse (1 mg/mL) and 5 μL of propidium iodide (2 mg/mL) are added. Each tube is left 30 minutes at 37° C. and immediately analysed by flow cytometry after incubation.
(§4) Viability and cell cycle profile, tested with compound (01), at 500 nM: […]

The subject of data set [2] is NCI-H460. The data set can be described thus: Cell cycle analysis, NCI-H460. The following applies: 500 nM. In kind it is cell-based, human. As to the method: as §3
(§5) A biparametric dot plot representation FL3 peak vs FL3 integer is plotted and the cells located on the diagonal are gated and analysed on a histogram representing the number of cells as a function of the FL3 peak.
(§6) To assess the relative position of cursors defining relative proportion of cells in subG1, G1, S or G2 phase of the cell cycle, G1 and G2 peaks are to be defined first:
(§7) The G1 peak is defined as the major peak in absence of treatment (generally X=200);
(§8) The G2 peak is centered on the value which is twice the value of the G1 peak (generally X=400).
(§9) Cells in subG1 phase are plotted in the part of the histogram preceding the G1 peak (generally X<200) and cells in S phase are enclosed in the area between the G1 and G2 peaks.
(§10) On this graphic, subG1, G1, S and G2/M phases of the cell cycle can thus be defined.
as §4

The test system of data set [3] is human lung cancer NCI-H460 cells (NSCLC). As to the kind of experiment: Inhibition of tumor growth in vivo, NCI-H460 xenograft. Set-up: species or system Swiss nude mice. The method, then:
FIG. 2: Inhibition of tumor growth in vivo.
This graph represents the growth of tumor size (by reference to the initial size of the tumor) grafted to mice receiving different treatments during 15 days.
Rhombus: evolution of the growth of the tumor measured in mice receiving the vehicle (without active ingredient) intra-peritoneally (2QD)
Triangle: evolution of the growth of the tumor measured in mice receiving the compound (01) intra-peritoneally at a dosage of 18 mg/kg (2QD).
Circle: evolution of the growth of the tumor measured in mice receiving taxol intra-peritoneally at 8 mg/kg (Q3D×5; d1; d4; d7; d10; d13).
Cross: evolution of the growth of the tumor measured in mice receiving a combination of compound (01) at a dosage of 18 mg/kg 2QD and taxol at a dosage of 8 mg/kg Q3D×5 intra-peritoneally.
For this experiment, Swiss nude mice received a subcutaneous xenograft of 5×10^6 human lung cancer NCI-H460 cells (NSCLC). The percentage of growth of the tumor size versus tumor size at the beginning of treatment is plotted during 15 days for mice receiving four different treatments (12 mice per group of treatment).
The first treatment corresponds to a control. The mice were given the vehicule intra-peritoneally, 2QD.
Composition of the vehicule: 10% DMSO; 10% PEG-400; 30% (EtOH/Cremophor (1/2)); 50% sterile water.
The second treatment corresponds to the administration of a compound of the invention, compound (01), at a dosage of 18 mg/kg 2QD.
The third treatment corresponds to the administration of Taxol at a dosage of 8 mg/kg Q3D×5; d1; d4; d7; d10; d13.
The fourth treatment corresponds to the administration of a combination of compound (01) at a dosage of 18 mg/kg 2QD and of Taxol at a dosage of 8 mg/kg Q3D×5.

Data set [4] relates to CEM. The data set can be described thus: Cell cycle analysis, CEM. The following applies: 500 nM. Type of data set: cell-based. The method, then:
as §3, §5, §6, §7, §8, §9, §10, §4

Data set [5] concerns A375. The data set can be described thus: Cell cycle analysis, A375. As to conditions: 500 nM. Type of data set: cell-based. The method, then:
as §3, §5, §6, §7, §8, §9, §10, §4

The nature of data set [6]: Viability (propidium iodide staining), MRC5. In kind it is cell-based. The following applies: human, MRC5 non-transformed fibroblasts, 500 nM. As to the method:
as §1, §2, §4

Data set [7] relates to MRC5. As to the kind of experiment: Viability (propidium iodide staining), MRC5. Type of data set: cell-based. As to conditions: 500 nM. As to the method:
as §1, §2, §4

Data set [8] in a line: Viability (propidium iodide staining), CEM. As to conditions: human, CEM cells (lymphoid), 500 nM. In kind it is cell-based. As to the method: as §1, §2, §4
Data set [9] concerns MRC5. The data set can be described thus: Cell cycle analysis, MRC5. In kind it is cell-based. As to conditions: 500 nM. As to the method:
as §3, §5, §6, §7, §8, §9, §10, §4

Data set [10] can be described thus: Viability (propidium iodide staining), PC3. As to conditions: human, PC3 cells (prostate), 500 nM. Type of data set: cell-based. As to the method: as §1, §2, §4

Broadly, the viability is the share of living cells, or the viability signal relative to a control. Low readings indicate a greater loss of cells, high ones better survival. For `COc1cc(NC(=S)NC(=O)/C=C/c2ccco2)ccc1-c1cc2ccccc2oc1=O` [Compound 01, (2E)-3-(2-furyl)-N-({[3-methoxy-4-(2-oxo-2H-chromen-3-yl)phenyl]amino}carbonothioyl)acrylamide], the “Effect on prostate and lung tumor cells” value in data set [1] is recorded as “cytostatic effect”. Besides, the “Cell cycle profile - 72 h” value in data set [2] (G2/M phase fraction) was “G2/M accumulation”; in data set [2] (sub-G1 fraction), “Strong sub-G1”; in data set [4], “Strong sub-G1”; in data set [5] (G2/M phase fraction) it was “G2/M accumulation”; in data set [5] (sub-G1 fraction) it was “Strong sub-G1”; in [9] it was “G2/M accumulation”. Moreover, the “Growth of lung tumor xenograft” value in [3] (18 mg/kg 2QD intra-peritoneally, 15 days) is “inhibits the growth”. Besides, the “Dose dependence of the tumor growth inhibition” value in [3] (NCI-H460 xenograft) is recorded as “dose-dependent”. Further, in [3] (compound (01) 18 mg/kg 2QD plus taxol 8 mg/kg Q3D×5, intra-peritoneally), the “Efficacy in reducing the tumour growth when combined with taxol” value is listed as “enhanced”. The viability at 48 h, 0.5 µM in data set [6] (48 h) was found to be 94%; in data set [8] (48 h), 10%; in data set [10] (48 h) it was 92%. In addition, the viability at 72 h, 0.5 µM in data set [6] (72 h) was determined as 89%; in [8] (72 h), 2%; in [10] (72 h) it was 90%. In addition, the “Effect on control non-transformed cells (MRC5)” value in [7] was “unaffected”.
